Biological target: T1, FGFR3 (Homo sapiens, UniProt P22607)
T1 construct: purchased Thermo Fisher Scientific (Life Technologies) SelectScreen
Test: SelectScreen Z'LYTE
Assay type: biochemical
How it was run: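 NU5455 was profiled across the SelectScreen Broad panel of kinase activity and binding assays. Z'LYTE reactions such as CSF1R ran at apparent Km ATP, while the Adapta CAMK1 assay used ATP listed as 10. Values are given as percent.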

T1 sequence (P22607 23-806): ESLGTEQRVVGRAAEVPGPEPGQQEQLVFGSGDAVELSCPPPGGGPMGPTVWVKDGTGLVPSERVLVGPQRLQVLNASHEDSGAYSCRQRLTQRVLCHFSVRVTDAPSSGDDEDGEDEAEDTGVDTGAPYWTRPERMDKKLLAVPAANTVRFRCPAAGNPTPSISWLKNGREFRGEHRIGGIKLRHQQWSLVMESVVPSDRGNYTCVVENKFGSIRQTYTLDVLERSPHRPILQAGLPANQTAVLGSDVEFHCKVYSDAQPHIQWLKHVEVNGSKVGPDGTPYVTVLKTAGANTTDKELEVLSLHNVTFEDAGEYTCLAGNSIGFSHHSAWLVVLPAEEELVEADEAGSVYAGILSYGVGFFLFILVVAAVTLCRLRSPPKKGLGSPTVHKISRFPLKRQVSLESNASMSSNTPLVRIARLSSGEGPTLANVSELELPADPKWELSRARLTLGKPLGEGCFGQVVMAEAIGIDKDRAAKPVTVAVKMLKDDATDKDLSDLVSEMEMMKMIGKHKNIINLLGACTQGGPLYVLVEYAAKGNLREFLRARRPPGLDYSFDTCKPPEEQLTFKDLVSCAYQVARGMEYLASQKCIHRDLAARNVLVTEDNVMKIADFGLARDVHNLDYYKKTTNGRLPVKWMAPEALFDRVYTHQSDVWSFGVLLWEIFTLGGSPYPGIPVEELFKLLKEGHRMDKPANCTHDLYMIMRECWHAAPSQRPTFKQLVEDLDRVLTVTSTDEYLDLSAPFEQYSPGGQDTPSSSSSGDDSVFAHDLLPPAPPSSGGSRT

CN(C(=O)CN1CCOCC1)c1ccc2sc3c(-c4cccc5c(=O)cc(N6CC7CCC(C6)O7)oc45)cccc3c2c1 [NU5455]
inhibition at 1 µM: 0.9%

Source: PMC6934184, “Selective DNA-PKcs inhibition extends the therapeutic index of localized radiotherapy and chemotherapy” (The Journal of Clinical Investigation, 2019)
